Measurements: US20180087079A1, “METHODS OF USING CELL-CYCLE INHIBITORS TO MODULATE ONE OR MORE PROPERTIES OF A CELL CULTURE” (AMGEN INC., priority 2013, published 2018)

Assays:
[1] = test system: transfected CHO cells expressing recombinant human monoclonal antibody (cell line 1); test: 24-deep well culture, cell line 1: VCD, viability, titer, qP; format: cell-based, Chinese hamster; conditions: for Titer / VCD / Viability / qP: Cell Line 1; for effect on viability / growth arrest: summary of Table 2
Experimental: (§1) Transfected CHO cells expressing a recombinant human monoclonal antibody (mAb) are cultured in 24-deep well plates with seeding density at 1×10^7/mL for five days. At certain time periods, samples of the cultures are taken and evaluated for viable cell density (VCD; expressed in 10^6 cells/mL); percent viability (as determined by trypan blue exclusion); titer of recombinant protein (expressed in grams of protein per liter of culture, or g/L, as determined by Protein A affinity HPLC); qP, or specific productivity (expressed in picograms of recombinant protein per cell per day, or pg/c/d), the presence or absence of high molecular weight substances (usually an indicator of protein aggregation; expressed as % of the total protein); and the relative percentage of Mannose 5, a major intermediate glyco-form that attaches to N297 of the mAb. N-linked glycosylation has an impact on the tertiary structure of the antibody and may affect Fc mediated antibody effector functions. The majority of the human Fc glycans are complex biantennary structures with galactose as the prevalent terminal sugar. Immature glyco-forms, such as high-mannose glycol-forms (Man5-9), are of concern due to potential higher plasma clearance rate (as compared to the clearance rate of complex glycan linked mAbs).
(§2) Compounds are further evaluated essentially as described in Example 2 herein. Briefly, transfected CHO cells expressing recombinant human monoclonal antibody (mAb; two different cell lines expressing two different mAb, referred to as cell line 1 and cell line 2) are cultured in 24-deep well plates in the presence or absence of the compounds. At specified time points, samples of the cultures are taken and evaluated for viable cell density (VCD; expressed in 10^6 cells/mL); percent viability (as determined by any method known in the art); titer of recombinant protein (expressed in grams of protein per liter of culture, or g/L, as determined by Protein A affinity HPLC); qP, or specific productivity (expressed in picograms of recombinant protein per cell per day, or pg/c/d). Additional parameters measure include the presence or absence of high molecular weight substances (usually an indicator of protein aggregation; expressed as % of the total protein); and the relative percentage of Mannose 5. For comparison purposes, Compounds A and B, which had been previously tested, were tested again.

CDK4/Cyclin D1 = biological target: T1, CDK4/Cyclin D1 (Homo sapiens, UniProt P11802); test: CDK4 filtration kinase assay; format: biochemical; conditions: CDK4/Cyclin D1, Rb fragment substrate, [33P]-ATP
T1 construct: purchased Cell Signaling Technology
Experimental: The CDK4 inhibitory activity of the cell cycle inhibitors was determined with a filtration kinase assay. The compounds, kinase and substrate diluted in the kinase buffer (20 mM Tris, pH7.4, 50 mM NaCl, 1 mM DTT, 0.1% BSA) were sequentially added to a 96-well Multiscreen HTS filtration plate (Millipore). The final 100 μL reaction mixture in each well contained 0.3 μg of CDK4/Cyclin D1 (Cell Signaling Technology), 1 μg of Rb fragment (aa773-928, Millipore) for the CDK4 assay and 1 μCi of [^33P]-ATP. The mixture was incubated at room temperature for 1 hour. The proteins in the reaction were then precipitated and washed with cold TCA solution using an aspiration/filtration vacuum system. The plates were dried at room temperature, and the retained radioactivity was measured by scintillation counting. IC50 values of the compounds in the above assays were determined by non-linear regression analysis using Prism (GraphPad Software).

Colo205 = test: [14C]-thymidine incorporation cell proliferation inhibition assay; format: cell-based; conditions: Homo sapiens, COLO 205, 72 hour incubation
Experimental: The cell proliferation inhibition potency of the cell cycle inhibitors was determined by using a [^14C]-thymidine incorporation assay. Exponentially growing cells (Colo205) were seeded in a 96-well Cytostar T plate (GE Healthcare Biosciences) at a density of 5×10^3 cells/well and incubated overnight. Serially diluted compounds and 0.1 μCi of [^14C]-thymidine (GE Healthcare Biosciences) were added to each well on the following day. After 72 hour incubation, isotope incorporation was determined with a β plate counter (Wallac). IC50 values of the compounds in the above assays were determined by non-linear regression analysis using Prism (GraphPad Software).

[2] = test system: transfected CHO cells expressing recombinant human monoclonal antibody (cell line 2); test: 24-deep well culture, cell line 2: VCD, viability, titer, qP; format: cell-based, Chinese hamster
Experimental: as §1, §2

T1 sequence (P11802 whole entry, species assumed, the tested form may be a part): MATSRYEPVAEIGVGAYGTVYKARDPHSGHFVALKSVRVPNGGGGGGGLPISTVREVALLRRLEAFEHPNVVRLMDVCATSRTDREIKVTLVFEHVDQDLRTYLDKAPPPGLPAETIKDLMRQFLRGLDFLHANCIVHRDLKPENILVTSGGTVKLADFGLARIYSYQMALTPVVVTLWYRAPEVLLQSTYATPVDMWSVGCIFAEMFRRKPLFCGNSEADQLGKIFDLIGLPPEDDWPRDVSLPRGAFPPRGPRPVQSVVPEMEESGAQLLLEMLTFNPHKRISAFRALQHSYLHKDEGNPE
T1 sequence (P24385 whole entry partner, species assumed, the tested form may be a part): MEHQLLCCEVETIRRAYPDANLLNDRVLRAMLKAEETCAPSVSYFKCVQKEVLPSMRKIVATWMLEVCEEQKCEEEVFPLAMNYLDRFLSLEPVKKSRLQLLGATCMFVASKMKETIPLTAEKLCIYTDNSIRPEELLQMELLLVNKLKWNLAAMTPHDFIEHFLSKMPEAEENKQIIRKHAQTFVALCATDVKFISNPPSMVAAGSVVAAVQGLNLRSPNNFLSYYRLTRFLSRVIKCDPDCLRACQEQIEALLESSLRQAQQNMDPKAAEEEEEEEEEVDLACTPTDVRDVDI

CC1CCC(n2c3cnccc3c3cnc(Nc4ccc(N5CCC6(CC5)CCS(=O)(=O)C6)nn4)nc32)CC1 (stereo not shown) [Compound E, 8-(6-((9-(4-methylcyclohexyl)-9H-pyrido[4′,3′:4,5]pyrrolo[2,3-d]pyrimidin-2-yl)amino)pyridazin-3-yl)-2-thia-8-azaspiro[4.5]decane 2,2-dioxide]
Titer ([1]; 5 microM, D 1): 0.47 g/L | VCD ([1]; 5 microM, D 1): 10.31 e6/mL | Viability ([1]; 5 microM, D 1): 95.94% | qP ([1]; 5 microM, D 1): 45.61 pg/c/d | Titer ([1]; 5 microM, D 2): 0.67 g/L | VCD ([1]; 5 microM, D 2): 9.37 e6/mL | Viability ([1]; 5 microM, D 2): 85.43% | qP ([1]; 5 microM, D 2): 71.53 pg/c/d | Titer ([1]; 5 microM, D 3): 0.85 g/L | VCD ([1]; 5 microM, D 3): 10.05 e6/mL | Viability ([1]; 5 microM, D 3): 79.09% | qP ([1]; 5 microM, D 3): 84.92 pg/c/d | Titer ([1]; 5 microM, D 4): 0.98 g/L | VCD ([1]; 5 microM, D 4): 10.39 e6/mL | Viability ([1]; 5 microM, D 4): 72.71% | qP ([1]; 5 microM, D 4): 94.68 pg/c/d | Titer ([1]; 10 microM, D 1): 0.48 g/L | VCD ([1]; 10 microM, D 1): 9.99 e6/mL | Viability ([1]; 10 microM, D 1): 94.71% | qP ([1]; 10 microM, D 1): 47.72 pg/c/d | Titer ([1]; 10 microM, D 2): 0.66 g/L | VCD ([1]; 10 microM, D 2): 9.29 e6/mL | Viability ([1]; 10 microM, D 2): 83.23% | qP ([1]; 10 microM, D 2): 71.04 pg/c/d | Titer ([1]; 10 microM, D 3): 0.83 g/L | VCD ([1]; 10 microM, D 3): 9.55 e6/mL | Viability ([1]; 10 microM, D 3): 76.37% | qP ([1]; 10 microM, D 3): 87.30 pg/c/d | Titer ([1]; 10 microM, D 4): 0.96 g/L | VCD ([1]; 10 microM, D 4): 10.29 e6/mL | Viability ([1]; 10 microM, D 4): 72.16% | qP ([1]; 10 microM, D 4): 92.97 pg/c/d | effect on viability [1]: greater (but still modest) decreases in viability | growth arrest [1]: more sustained growth arrest | IC50 (CDK4/Cyclin D1): 4.45 nM | IC50 (Colo205): 38.4 nM

CN(C)C1CCN(c2ccc(Nc3ncc4c(n3)C3(C=CC(C)(C)CC3)c3cnccc3-4)cn2)CC1 (stereo not shown) [Compound F, N-(6-(4-(dimethylamino)piperidin-1-yl)pyridin-3-yl)-4,4-dimethylspiro[cyclohex[2]ene-1,9′-pyrido[4′,3′:3,4]cyclopenta[1,2-d]pyrimidin]-2′-amine]
Titer ([1]; 1.2 microM, D 1): 0.49 g/L | VCD ([1]; 1.2 microM, D 1): 11.56 e6/mL | Viability ([1]; 1.2 microM, D 1): 96.84% | qP ([1]; 1.2 microM, D 1): 42.39 pg/c/d | Titer ([1]; 1.2 microM, D 2): 0.73 g/L | VCD ([1]; 1.2 microM, D 2): 10.80 e6/mL | Viability ([1]; 1.2 microM, D 2): 90.23% | qP ([1]; 1.2 microM, D 2): 67.31 pg/c/d | Titer ([1]; 1.2 microM, D 3): 0.96 g/L | VCD ([1]; 1.2 microM, D 3): 11.96 e6/mL | Viability ([1]; 1.2 microM, D 3): 89.40% | qP ([1]; 1.2 microM, D 3): 80.01 pg/c/d | Titer ([1]; 1.2 microM, D 4): 1.13 g/L | VCD ([1]; 1.2 microM, D 4): 14.70 e6/mL | Viability ([1]; 1.2 microM, D 4): 88.76% | qP ([1]; 1.2 microM, D 4): 77.09 pg/c/d | Titer ([1]; 2.4 microM, D 1): 0.50 g/L | VCD ([1]; 2.4 microM, D 1): 11.16 e6/mL | Viability ([1]; 2.4 microM, D 1): 95.96% | qP ([1]; 2.4 microM, D 1): 44.50 pg/c/d | Titer ([1]; 2.4 microM, D 2): 0.75 g/L | VCD ([1]; 2.4 microM, D 2): 10.01 e6/mL | Viability ([1]; 2.4 microM, D 2): 89.97% | qP ([1]; 2.4 microM, D 2): 75.27 pg/c/d | Titer ([1]; 2.4 microM, D 3): 0.97 g/L | VCD ([1]; 2.4 microM, D 3): 10.33 e6/mL | Viability ([1]; 2.4 microM, D 3): 88.89% | qP ([1]; 2.4 microM, D 3): 93.88 pg/c/d | Titer ([1]; 2.4 microM, D 4): 1.18 g/L | VCD ([1]; 2.4 microM, D 4): 12.84 e6/mL | Viability ([1]; 2.4 microM, D 4): 86.16% | qP ([1]; 2.4 microM, D 4): 91.87 pg/c/d | effect on viability [1]: minimal effects on viability | growth arrest [1]: reasonably sustained growth arrest | IC50 (CDK4/Cyclin D1): 33.5 nM | IC50 (Colo205): 34.7 nM

CN(C)C1CCN(c2ccc(Nc3ncc4c(n3)C3(C=CC(C)(C)CC3)c3cnccc3-4)nc2)CC1 (stereo not shown) [Compound L, N-(5-(4-(dimethylamino)piperidin-1-yl)pyridin-2-yl)-4,4-dimethylspiro[cyclohex[2]ene-1,9′-pyrido[4′,3′:3,4]cyclopenta[1,2-d]pyrimidin]-2′-amine]
Titer ([2]; 1.2 microM, D 1): 0.28 g/L | VCD ([2]; 1.2 microM, D 1): 11.76 e6/mL | Viability ([2]; 1.2 microM, D 1): 94.88% | qP ([2]; 1.2 microM, D 1): 23.81 pg/c/d | Titer ([2]; 1.2 microM, D 2): 0.49 g/L | VCD ([2]; 1.2 microM, D 2): 13.63 e6/mL | Viability ([2]; 1.2 microM, D 2): 92.63% | qP ([2]; 1.2 microM, D 2): 35.94 pg/c/d | Titer ([2]; 1.2 microM, D 3): 0.58 g/L | VCD ([2]; 1.2 microM, D 3): 18.56 e6/mL | Viability ([2]; 1.2 microM, D 3): 92.09% | qP ([2]; 1.2 microM, D 3): 31.42 pg/c/d | Titer ([2]; 1.2 microM, D 4): 0.70 g/L | VCD ([2]; 1.2 microM, D 4): 26.40 e6/mL | Viability ([2]; 1.2 microM, D 4): 91.17% | qP ([2]; 1.2 microM, D 4): 26.64 pg/c/d | Titer ([2]; 2.4 microM, D 1): 0.28 g/L | VCD ([2]; 2.4 microM, D 1): 11.43 e6/mL | Viability ([2]; 2.4 microM, D 1): 94.24% | qP ([2]; 2.4 microM, D 1): 24.20 pg/c/d | Titer ([2]; 2.4 microM, D 2): 0.47 g/L | VCD ([2]; 2.4 microM, D 2): 12.95 e6/mL | Viability ([2]; 2.4 microM, D 2): 91.47% | qP ([2]; 2.4 microM, D 2): 36.29 pg/c/d | Titer ([2]; 2.4 microM, D 3): 0.60 g/L | VCD ([2]; 2.4 microM, D 3): 16.19 e6/mL | Viability ([2]; 2.4 microM, D 3): 90.68% | qP ([2]; 2.4 microM, D 3): 37.05 pg/c/d | Titer ([2]; 2.4 microM, D 4): 0.76 g/L | VCD ([2]; 2.4 microM, D 4): 24.27 e6/mL | Viability ([2]; 2.4 microM, D 4): 91.43% | qP ([2]; 2.4 microM, D 4): 31.18 pg/c/d | IC50 (CDK4/Cyclin D1): 1.4 nM | IC50 (Colo205): 23.5 nM
